According to patent US8846107B2, “In situ generation of peroxycarboxylic acids at alkaline pH, and methods of use thereof” (priority 2010, dated 2014):

Experiments:
[1] = Dispersion stability of acidified POOA solutions with dispersing agents; type: physicochemical
Protocol: The SLS, LAS and SOA dispersing agents were then further examined for efficacy in stabilizing and/or dispersing in 1% or lower sulfuric acid solutions. Solutions were made according to the following order (3, 6, 9, 12, 1, 4, 7, 10, 2, 5, 8, 11, 13, 14). Solution 13 was made as 1 through 12 with the addition of 50 mL of 5 grain hard water to the aliquot of alkaline reaction solution followed by swirling with the surface aliquot and then additional 50 mL of 5 grain hard water, followed within about 5 seconds by 50 mL of 5 grain 2% sulfuric acid and swirled. Solution 14 was made by direct addition of 1% sulfuric acid (5 grain) without pre-dilution, but after moments of swirling with SLS aliquot. All concentrations are shown in ppm.
For the POOA solutions the targeted peracid concentration was based upon initial average of about 5.40 wt-% of ongoing cold alkaline peracid hydrolysis according to the invention (**), wherein the aliquot was constant while POOA was increasing.
The appearance of an oil sheen was regarded as a pass or fail.

[2] = Coupling of precipitated POOA solution by surfactants and hydrotropes; type: physicochemical; conditions: 1000 ppm POOA in DI Water
Protocol: A variety of surfactants were analyzed for coupling and/or dispersion stabilizing of a peroxycarboxylic acid composition generated according to the methods of the invention. In particular, a peroxyoctanoic acid (POOA) composition in deionized water produced according to the invention was analyzed for coupling and/or dispersion stabilization using the dispersing agents set forth in Table 14A.
Given the very limited water solubility of POOA in its protonated form, acidification of the alkaline perhydrolysis solutions of the same causes immediate precipitation and rapid phase separation. In this example various surfactants and hydrotropes were evaluated for their ability to couple the POOA. In Table 14A it can be seen that the most efficient agents for coupling an already precipitated solution of POOA were samples I and II.

[3] = test system: Escherichia coli ATCC 11229; assay: Sanitizing efficacy of in situ generated peroxycarboxylic acids; type: cell-based; conditions: 25° C.
Protocol: A study was run to evaluate the sanitizing efficacy of mixtures of peroxycarboxylic acids generated in situ from esters under alkaline conditions. For this study the following ester based peroxycarboxylic acid forming compositions were used.
The above Peroxycarboxylic acid premixes were then tested alone at various concentrations, and mixed at various concentrations against Staphylococcus aureus ATCC 6538, and Escherichia coli ATCC 11229.
The test substances were tested against Staphylococcus aureus ATCC 6538, and Escherichia coli ATCC 11229 at 25° C.±1° C. for 30 seconds. A neutralizer screen was performed as part of the testing to verify that the neutralizer adequately neutralized the product and was not detrimental to the tested organisms.

[4] = 35 ppm POAA, pH 5.00, 30 seconds
[5] = 61 ppm POAA, pH 5.00, 30 seconds
[6] = 13 ppm POOA, pH 4.98, 30 seconds
[7] = 15 ppm POOA, pH 5.01, 30 seconds
[8] = 20 ppm POOA, pH 4.98, 30 seconds

## CCCCCCCCCCCCOS(=O)(=O)[O-].[Na+] [I, Sodium Lauryl Sulfate]
[1]; acidic, aqueous dispersions of POOA
  dispersant performance for acidified POOA: exceptional dispersant
[2]
  Amount of (B) Required for Coupling (g/200 g aq POOA): 0.64 g/200 g aq POOA

## CC(=O)OO [POAA, peroxyacetic acid]
[3]; [4]
  Average Log10 Survivors: 7.27 Log10
  Log Reduction: 0.78 Log
  Survivors (CFU/mL): 1.85 × 10^7 CFU/mL
[3]; [5]
  Average Log10 Survivors: 3.93 Log10
  Log Reduction: 4.12 Log
  Survivors (CFU/mL): 3.0 × 10^3 CFU/mL

## CCCCCCCC(=O)OO [POOA, peroxyoctanoic acid]
[3]; [6]
  Average Log10 Survivors: 7.59 Log10
  Log Reduction: 0.46 Log
  Survivors (CFU/mL): 4.22 × 10^7 CFU/mL
[3]; [7]
  Average Log10 Survivors: 7.15 Log10
  Log Reduction: 0.90 Log
  Survivors (CFU/mL): 1.06 × 10^7 CFU/mL
[3]; [8]
  Average Log10 Survivors: 5.85 Log10
  Log Reduction: 2.20 Log

## CCCCCCCCS(=O)(=O)[O-].[Na+] [VII, Sodium octanesulfonate]
[2]
  Amount of (B) Required for Coupling (g/200 g aq POOA): 6.60 g/200 g aq POOA

## CCCCC(CC)COC(=O)CC(C(=O)OCC(CC)CCCC)S(=O)(=O)[O-].[Na+] (centres unmarked) [X, Sodium dioctyl Sulfosuccinates]
[2]
  Amount of (B) Required for Coupling (g/200 g aq POOA): >2.0 g/200 g aq POOA

## Alkyl Polyglycosides [VI]
[2]
  Amount of (B) Required for Coupling (g/200 g aq POOA): 2.46 g/200 g aq POOA

## Linear Aryl Sulfonate [II]
[1]; acidified POOA in 10,000 ppm H2SO4, oil sheen regarded as fail
  oil sheen at 23 h: minimal surface oil
[2]
  Amount of (B) Required for Coupling (g/200 g aq POOA): 0.65 g/200 g aq POOA
[2]; listed as LAS
  Amount of (B) Required for Coupling (g/200 g aq POOA): 0.64 g/200 g aq POOA

## Sodium Lauryl Ether Sulfate [III]
[2]
  Amount of (B) Required for Coupling (g/200 g aq POOA): >0.94 g/200 g aq POOA
